Patent US8859574B2 (IRM LLC, priority 2008, dated 2014)

Biological target: T1, IGF-1R Ba/F3 (Homo sapiens, UniProt P08069)
T1 construct: fused on or other part: TEL- (or BCR-) IGF-1R in Ba/F3: the kinase part holds the site
Assay: Ba/F3 Cell Viability Inhibition Assay (IGF-1R Ba/F3)
Assay type: cell-based, murine
Conditions: Tel-TK transformed Ba/F3 cells, 48 hours, Britelite luminescence
In short: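 A 48 h compound treatment at 37 °C (3750 cells/well) was followed by Britelite luminescence to measure viability. Cells were Ba/F3 pro-B cells, IL-3-independent via TEL-fused IGF-1R kinase transduction. A logistic fit gave IC50 as 50% viability relative to DMSO control.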

T1 sequence (P08069 999-1274 limits assumed): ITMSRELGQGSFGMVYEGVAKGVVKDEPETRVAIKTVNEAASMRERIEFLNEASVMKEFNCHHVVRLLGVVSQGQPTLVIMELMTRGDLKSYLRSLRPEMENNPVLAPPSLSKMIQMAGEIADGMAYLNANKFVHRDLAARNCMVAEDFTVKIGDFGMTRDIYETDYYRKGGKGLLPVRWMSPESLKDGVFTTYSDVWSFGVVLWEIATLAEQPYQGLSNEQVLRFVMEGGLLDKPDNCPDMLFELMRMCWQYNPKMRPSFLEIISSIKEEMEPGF

Q: How did the IC50 turn out when Cc1cc(Nc2nc(Nc3cc(C(F)(F)F)c(N4CCN(C)CC4)cc3C)ncc2Cl)n[nH]1 [Compound 156, 5-chloro-N4-(5-methyl-1H-pyrazol-3-yl)-N2-(2-methyl-4-(4-methylpiperazin-1-yl)-5-(trifluoromethyl)phenyl)pyrimidine-2,4-diamine] was run?
A: The IC50 was 40 nM.

Q: CCc1noc(CN2CCC(c3cc(F)c(Nc4ncc(Cl)c(Nc5cc(C)[nH]n5)n4)cc3C)CC2)n1 [Compound 284, 5-chloro-N2-(4-(1-((3-ethyl-1,2,4-oxadiazol-5-yl)methyl)piperidin-4-yl)-2-fluoro-5-methylphenyl)-N4-(5-methyl-1H-pyrazol-3-yl)pyrimidine-2,4-diamine] was tested. Which IC50 did it give?
A: Its IC50 is 33 nM.

Q: For CNCC(=O)N1CCC(c2cc(F)c(Nc3ncc(Cl)c(Nc4cc(C)[nH]n4)n3)cc2C)CC1 [Compound 80, 1-(4-(4-(5-chloro-4-(5-methyl-1H-pyrazol-3-ylamino)pyrimidin-2-ylamino)-5-fluoro-2-methylphenyl)piperidin-1-yl)-2-(methylamino)ethanone], which IC50 is on record?
A: Its IC50 is 103 nM.

Q: How did the IC50 turn out when Cc1cc(Nc2nc(Nc3cc(C)c([C@H]4CCN[C@H](C)C4)cc3F)ncc2Cl)n[nH]1 (relative stereo) [Compound 279, 5-chloro-N2-(2-fluoro-5-methyl-4-((trans)-2-methylpiperidin-4-yl)phenyl)-N4-(5-methyl-1H-pyrazol-3-yl)pyrimidine-2,4-diamine] was run?
A: The IC50 was 64 nM.

Q: How did the IC50 turn out when Cc1cc(Nc2nc(Nc3cc(C)c(C4CNC4)cc3C)ncc2Cl)n[nH]1 [Compound 237, N2-(4-(azetidin-3-yl)-2,5-dimethylphenyl)-5-chloro-N4-(5-methyl-1H-pyrazol-3-yl)pyrimidine-2,4-diamine] was run?
A: Its IC50 is 410 nM.

Q: For Cc1cc(Nc2nc(Nc3cc(C)c(C4CCN(C(=O)[C@H]5CCCN5C)CC4)cc3C)ncc2Cl)n[nH]1 [Compound 133, (R)-(4-(4-(5-chloro-4-(5-methyl-1H-pyrazol-3-ylamino)pyrimidin-2-ylamino)-2,5-dimethylphenyl)piperidin-1-yl)(1-methylpyrrolidin-2-yl)methanone], which IC50 is on record?
A: The IC50 was 13 nM.

Q: Cc1cc(Nc2nc(Nc3cc(C)c(C4CCN(C5CCNC5)CC4)cc3F)ncc2Cl)n[nH]1 (centres unmarked) [Compound 299, 5-chloro-N2-(2-fluoro-5-methyl-4-(1-(pyrrolidin-3-yl)piperidin-4-yl)phenyl)-N4-(5-methyl-1H-pyrazol-3-yl)pyrimidine-2,4-diamine] was tested. Which IC50 did it give?
A: Its IC50 is 101 nM.

Q: Cc1cc(Nc2ncc(Cl)c(Nc3cc(C4CC4)[nH]n3)n2)c(F)cc1C1CCNCC1 [Compound 17, 5-chloro-N4-(5-cyclopropyl-1H-pyrazol-3-yl)-N2-(2-fluoro-5-methyl-4-(piperidin-4-yl)phenyl)pyrimidine-2,4-diamine] was tested. Which IC50 did it give?
A: Its IC50 is 160 nM.

Q: For CNC(=O)C(C)N1CCC(c2cc(F)c(Nc3ncc(Cl)c(Nc4cc(C)[nH]n4)n3)cc2C)CC1 (centres unmarked) [Compound 50, 2-(4-(4-(5-chloro-4-(5-methyl-1H-pyrazol-3-ylamino)pyrimidin-2-ylamino)-5-fluoro-2-methylphenyl)piperidin-1-yl)-N-methylpropanamide], which IC50 is on record?
A: Its IC50 is 22 nM.

Q: With Cc1cc(Nc2nc(Nc3cc(C)c(C4CCN(C(=O)CN5CCN(C)CC5)CC4)cc3F)ncc2Cl)n[nH]1 [Compound 105, 1-(4-(4-(5-chloro-4-(5-methyl-1H-pyrazol-3-ylamino)pyrimidin-2-ylamino)-5-fluoro-2-methylphenyl)piperidin-1-yl)-2-(4-methylpiperazin-1-yl)ethanone] as the molecule, how does the IC50 read?
A: Its IC50 is 51 nM.

Q: Which IC50 does the source give for Cc1cc(Nc2nc(Nc3cc(C)c(C4CCN(Cc5noc(C)n5)CC4)cc3C)ncc2Cl)n[nH]1 [Compound 304, 5-chloro-N2-(2,5-dimethyl-4-(1-((5-methyl-1,2,4-oxadiazol-3-yl)methyl)piperidin-4-yl)phenyl)-N4-(5-methyl-1H-pyrazol-3-yl)pyrimidine-2,4-diamine] here?
A: The IC50 was 5 nM.

Q: Cc1cc(Nc2nc(Nc3cc(C#N)c(C4CCN(C)CC4)cc3C)ncc2Cl)n[nH]1 [Compound 286, 5-(5-chloro-4-(5-methyl-1H-pyrazol-3-ylamino)pyrimidin-2-ylamino)-4-methyl-2-(1-methylpiperidin-4-yl)benzonitrile] was tested. Which IC50 did it give?
A: The IC50 was 37 nM.

Q: How did the IC50 turn out when CNC(C)C(=O)N1CCC(c2cc(F)c(Nc3ncc(Cl)c(Nc4cc(C)[nH]n4)n3)cc2C)CC1 (centres unmarked) [Compound 85, 1-(4-(4-(5-chloro-4-(5-methyl-1H-pyrazol-3-ylamino)pyrimidin-2-ylamino)-5-fluoro-2-methylphenyl)piperidin-1-yl)-2-(methylamino)propan-1-one] was run?
A: Its IC50 is 42 nM.

Q: For CC(=O)NCC(=O)N1CCC(c2cc(F)c(Nc3ncc(Cl)c(Nc4cc(C)[nH]n4)n3)cc2C)CC1 [Compound 107, N-(2-(4-(4-(5-chloro-4-(5-methyl-1H-pyrazol-3-ylamino)pyrimidin-2-ylamino)-5-fluoro-2-methylphenyl)piperidin-1-yl)-2-oxoethyl)acetamide], which IC50 is on record?
A: Its IC50 is 57 nM.

Q: Which IC50 does the source give for Cc1cc(Nc2nc(Nc3cc(C)c(C4CCN(C(=O)c5nc(C(C)C)no5)CC4)cc3C)ncc2Cl)n[nH]1 [Compound 270, (4-(4-(5-chloro-4-(5-methyl-1H-pyrazol-3-ylamino)pyrimidin-2-ylamino)-2,5-dimethylphenyl)piperidin-1-yl)(3-isopropyl-1,2,4-oxadiazol-5-yl)methanone] here?
A: Its IC50 is 18 nM.

Q: For Cc1cc(Nc2nc(Nc3cc(C)c(C4CCS(=O)(=O)C4)cc3C)ncc2Cl)n[nH]1 (centres unmarked) [Compound 154, 5-Chloro-N^2-[4-(1,1-dioxo-tetrahydro-1λ^6-thiophen-3-yl)-2,5-dimethyl-phenyl]-N^4-(5-methyl-1H-pyrazol-3-yl)-pyrimidine-2,4-diamine], which IC50 is on record?
A: Its IC50 is 12 nM.

Q: Cc1cc(Nc2nc(Nc3cc(C)c(C4CCN(C(=O)[C@@H]5C(O)CCN5C)CC4)cc3F)ncc2Cl)n[nH]1 (stereo in doubt) [Compound 139, (4-(4-(5-chloro-4-(5-methyl-1H-pyrazol-3-ylamino)pyrimidin-2-ylamino)-5-fluoro-2-methylphenyl)piperidin-1-yl)((2S,3R)-3-hydroxy-1-methylpyrrolidin-2-yl)methanone] was tested. Which IC50 did it give?
A: Its IC50 is 175 nM.

Q: Cc1cc(Nc2nc(Nc3cc(C)c(C4CCN(S(=O)(=O)C5CC5)CC4)cc3F)ncc2Cl)n[nH]1 [Compound 64, 5-chloro-N2-(4-(1-(cyclopropylsulfonyl)piperidin-4-yl)-2-fluoro-5-methylphenyl)-N4-(5-methyl-1H-pyrazol-3-yl)pyrimidine-2,4-diamine] was tested. Which IC50 did it give?
A: Its IC50 is 59 nM.

Q: For Cc1cc(Nc2nc(Nc3cc(C)c(C4CCN(Cc5ccnnc5)CC4)cc3F)ncc2Cl)n[nH]1 [Compound 316, 5-chloro-N2-(2-fluoro-5-methyl-4-(1-(pyridazin-4-ylmethyl)piperidin-4-yl)phenyl)-N4-(5-methyl-1H-pyrazol-3-yl)pyrimidine-2,4-diamine], which IC50 is on record?
A: Its IC50 is 27 nM.

Q: Which IC50 does the source give for Cc1cc(Nc2ncc(Cl)c(N[C@H]3CCCCNC3=O)n2)c(F)cc1C1CCN(C)CC1 (single isomer, unassigned) [Compound 10] here?
A: The IC50 was 869 nM.

Q: Cc1cc(Nc2nc(Nc3cc(C)c(C4CCN(C5CCOCC5)CC4)cc3F)ncc2Cl)n[nH]1 [Compound 209, 5-chloro-N^2-(2-fluoro-5-methyl-4-(1-(tetrahydro-2H-pyran-4-yl)piperidin-4-yl)phenyl)-N^4-(5-methyl-1H-pyrazol-3-yl)pyrimidine-2,4-diamine] was tested. Which IC50 did it give?
A: Its IC50 is 27 nM.

Q: With Cc1cc(Nc2nc(Nc3cc(C)c(C4CCCCN4C[C@@H](O)C(F)(F)F)cc3C)ncc2Cl)n[nH]1 (stereo partly drawn) [Compound 229, (2R)-3-(2-(4-(5-chloro-4-(5-methyl-1H-pyrazol-3-ylamino)pyrimidin-2-ylamino)-2,5-dimethylphenyl)piperidin-1-yl)-1,1,1-trifluoropropan-2-ol] as the molecule, how does the IC50 read?
A: The IC50 was 211 nM.

Q: For Cc1cc(Nc2nc(Nc3cc(C)c(C4=CCNCC4)cc3F)ncc2Cl)n[nH]1 [Compound 150, 5-chloro-N2-(2-fluoro-5-methyl-4-(1,2,3,6-tetrahydropyridin-4-yl)phenyl)-N4-(5-methyl-1H-pyrazol-3-yl)pyrimidine-2,4-diamine], which IC50 is on record?
A: The IC50 was 25 nM.

Q: Which IC50 does the source give for Cc1cc(Nc2nc(Nc3cc(C)c(C4CCN(C(=O)N(C)C)CC4)cc3F)ncc2Cl)n[nH]1 [Compound 69, 4-(4-(5-Chloro-4-(5-methyl-1H-pyrazol-3-ylamino)pyrimidin-2-ylamino)-5-fluoro-2-methylphenyl)-N,N-dimethylpiperidine-1-carboxamide] here?
A: Its IC50 is 11 nM.

Q: Which IC50 does the source give for Cc1cc(Nc2nc(Nc3cc(C)c(C4CCN(C(=O)CN5CCOCC5)CC4)cc3C)ncc2Cl)n[nH]1 [Compound 102, 1-(4-(4-(5-chloro-4-(5-methyl-1H-pyrazol-3-ylamino)pyrimidin-2-ylamino)-2,5-dimethylphenyl)piperidin-1-yl)-2-morpholinoethanone] here?
A: Its IC50 is 9 nM.

Q: With CCc1cc(Nc2nc(Nc3cc(C)c(C4CCN(C5CS(=O)(=O)C5)CC4)cc3F)ncc2Cl)n[nH]1 [Compound 264, 5-Chloro-N2-{4-[1-(1,1-dioxo-1λ6-thietan-3-yl)-piperidin-4-yl]-2-fluoro-5-methyl-phenyl}-N4-(5-ethyl-1H-pyrazol-3-yl)-pyrimidine-2,4-diamine] as the molecule, how does the IC50 read?
A: The IC50 was 21 nM.

Q: How did the IC50 turn out when Cc1cc(Nc2nc(Nc3cc(C)c(C4CCN(CC(N)=O)CC4)cc3C)ncc2C(F)(F)F)n[nH]1 [Compound 202, 2-(4-(2,5-dimethyl-4-(4-(5-methyl-1H-pyrazol-3-ylamino)-5-(trifluoromethyl)pyrimidin-2-ylamino)phenyl)piperidin-1-yl)acetamide] was run?
A: The IC50 was 20 nM.

Q: Cc1cc(C2CCN(CC(N)=O)CC2)c(C)cc1Nc1ncc(Cl)c(Nc2cc(C(F)(F)F)[nH]n2)n1 [Compound 217, 2-(4-(4-(5-chloro-4-(5-(trifluoromethyl)-1H-pyrazol-3-ylamino)pyrimidin-2-ylamino)-2,5-dimethylphenyl)piperidin-1-yl)acetamide] was tested. Which IC50 did it give?
A: Its IC50 is 34 nM.

Q: With Cc1cc(Nc2nc(Nc3cc(C)c(C4CCN(CCC(=O)NC5CC5)CC4)cc3F)ncc2Cl)n[nH]1 [Compound 247, 3-(4-(4-(5-chloro-4-(5-methyl-1H-pyrazol-3-ylamino)pyrimidin-2-ylamino)-5-fluoro-2-methylphenyl)piperidin-1-yl)-N-cyclopropylpropanamide] as the molecule, how does the IC50 read?
A: Its IC50 is 62 nM.
